We go through 1 compound from patent US20160137630A1, “INDUCTION OF GATA2 BY HDAC1 AND HDAC2 INHIBITORS” (ACETYLON PHARMACEUTICALS, INC., priority 2014, published 2016).

The test system of data set [1] is histone acetylation (H3K9/14ac, H3K56ac, H3K79ac, H2BK5ac). The data set is described as follows: histone acetylation levels by western blot. Conditions: 1 and 5 μM, FIG. 9B.
For data set [2], the system named is human bone marrow mononuclear cells. The data set is described as follows: colony formation assays. Conditions: 1 μM.
Data set [3] has as its system CD34+ bone marrow cells undergoing erythroid differentiation. In words: Affymetrix GeneChip mRNA expression profiling. The format is cell-based, human. An excerpt: The knockdown results were derived from an independent analysis of publically available raw data (Bradner et al., “Chemical genetic strategy identifies histone deacetylase 1 (HDAC1) and HDAC2 as therapeutic targets in sickle cell disease”, PNAS, vol. 107(28), pp. 12617-22 (2010)) and detection of mRNA by Affymetrix GeneChip.
Among the genes differentially regulated by both pharmacological inhibition and genetic ablation of HDAC1/2 were Bcl11a and Sox6, known HbG repressors, and Gata2, a potential HbG activator.
Then, the cells were differentiated by exposure to either vehicle (control) or Compound 001. FACS was performed at day 5. […] GlyA.
The mechanism through which HDAC1/2 inhibition induces HbG by performing gene expression profiling was interrogated. Because HDAC inhibition prevented cells from fully upregulating GlyA (FIG. 19E), RNA was isolated at day 5 of differentiation, a time point prior to the observed differentiation block.
Next, using the GeneChip data, a candidate gene approach was taken to determine which HbG modulators were changing as a result of both chemical and genetic HDAC1/2 inhibition (FIG. 1A). […] In contrast, other HbG repressors, such as Myb and Klf1 were unaffected. Expression changes were not observed for other genes involved in HbG regulation, including KDM1A (LSD1), NR2C1 (TR2) and NR2C2 (TR4), NR2F2 (COUP-TFII) and nuclear factor Y subunits, and proteins known to associate with Bcl11a12 (data not shown).

Where [4] appears, read: Compound 001 1 μM vs vehicle, day 5.

With `Nc1ccc(-c2cccs2)cc1NC(=O)c1ccc2nc(N3CCNCC3)ccc2c1` [Compound 001, N-(2-amino-5-(thiophen-2-yl)phenyl)-2-(piperazin-1-yl)quinoline-6-carboxamide], in data set [1], the “histone acetylation (H3K9/14ac, H3K56, H3K79ac, H2BK5ac)” value is “dose-dependent accumulation of acetylation”. In addition, in data set [2], the “number of CFU-E colonies” value is “no effect”; the “number of CFU-GM colonies” value was “no effect”; the “number of CFU-MK colonies” value is listed as “significantly suppressed”; the “size and number of BFU-E colonies” value was “no effect”. Moreover, in data set [3] (setting [4]), the “candidate gene expression ratio Bcl11a” value was found to be 0.8, the “candidate gene expression ratio Gata1” value amounted to 1.0, the “candidate gene expression ratio Gata2” value was found to be 2.8 and the “candidate gene expression ratio KLF1” value stood at 0.9. In addition, in data set [3] (setting [4]), the “candidate gene expression ratio Myb” value worked out at 1.1 and the “candidate gene expression ratio Sox6” value came to 0.4. In data set [3] (GeneChip, FIG. 1A), the Bcl11a down-regulation came to 1.3 fold, the Gata2 up-regulation is 2.8 fold, the Klf1 expression change result is “unaffected” and the Myb expression change entry is “unaffected”. This compound gave a Sox6 down-regulation in data set [3] (GeneChip, FIG. 1A) of 2.5 fold.
